Source: paper PMC9611540, “PEGylation of the antimicrobial peptide LyeTx I-b maintains structure-related biological properties and improves selectivity” (Frontiers in Molecular Biosciences, 2022)

What was measured:
[1] = test system: Escherichia coli (ATCC 25922); type: cell-based; conditions: for MIC: E. coli ATCC 25922, microdilution plates, Mueller Hinton, 10^4 bacterial cells per well, peptides 32 to 0.25 μM, triplicate
Description: (§1) Escherichia coli (ATCC 25922), Staphylococcus aureus (ATCC 33591), and three multidrug-resistant isolates (two E. coli and one S. aureus) were provided by Laboratory of Oral Microbiology and Anaerobes, Department of Microbiology, Institute of Biological Sciences, Federal University of Minas Gerais. Renal epithelial cells of the African green monkey (Cercopithecus aethiops) (VERO, ATCC CCL-81) were provided by the Federal University of Sao Joao del-Rei (UFSJ).
(§2) In order to determine MIC values of the PEGylated and the non-PEGylated peptides, bacterial isolates were cultured in TSA. After incubation for 24 h, at 37°C, under aerobic conditions, colonies were collected using an inoculation loop and transferred to saline solution (0.9% m/v NaCl). The inoculums were checked in a spectrophotometer at 600 nm; colonies were added until an absorbance corresponding to 1.5 × 10^8 cells · mL^−1 was obtained. Then, a 150-fold dilution was performed to achieve a concentration of 1 × 10^6 cells · mL^−1. MIC assays were performed in microdilution plates employing inoculums of 10^4 bacterial cells per well and concentrations of peptides ranging from 32 to 0.25 μM. All analyses were performed in triplicate. Positive (MH + bacterial inoculum) and negative (MH and MH + saline solution) controls were included in each batch of tests.
(§3) The specific values of molar peptide concentration used in this work were estimated according to the method described by [Schmid (2001)].

[2] = test system: Staphylococcus aureus (ATCC 33591); type: cell-based; conditions: for MIC: S. aureus ATCC 33591, microdilution plates, Mueller Hinton, 10^4 bacterial cells per well, peptides 32 to 0.25 μM, triplicate
Description: as §1, §2, §3

[3] = test system: E.coli ISOL_10 (multidrug-resistant isolate); type: cell-based, Escherichia coli; conditions: microdilution plates, Mueller Hinton, 10^4 bacterial cells per well, peptides 32 to 0.25 μM, triplicate
Description: as §1, §2, §3

[4] = test system: E.coli ISOL_11 (multidrug-resistant isolate); type: cell-based, Escherichia coli; conditions: for MIC: E. coli ISOL_11, microdilution plates, Mueller Hinton, 10^4 bacterial cells per well, peptides 32 to 0.25 μM, triplicate
Description: as §1, §2, §3

[5] = test system: S. aureus ISOL_1 (multidrug-resistant isolate); type: cell-based, Staphylococcus aureus; conditions: for MIC: S. aureus ISOL_1, microdilution plates, Mueller Hinton, 10^4 bacterial cells per well, peptides 32 to 0.25 μM, triplicate
Description: as §1, §2, §3

[6] = target: proteinase K (Parengyodontium album, UniProt P06873); test: Proteolytic degradation assay, RP-HPLC; type: in vitro ADME; conditions: 50 μM peptide, enzyme:substrate 1:50 (w/w) or 1:25 (w/w), 10 mM phosphate buffer pH 8.0, 37°C, up to 24 h, RP-HPLC C18, UV 215 nm
Procedure: (§4) The enzymes used in the experiments were trypsin and proteinase K. Enzyme solutions were prepared a few minutes before the experiments and contained 1.0 µM enzyme in 10 mM phosphate buffer at pH 8.0 for activation. Comparative proteolysis experiments between LyeTx I-b and LyeTx I-bPEG were performed by digesting the peptide solution (50 μM) with the enzyme solutions incubated at 37°C at an enzyme:substrate ratio of 1:50 (w/w) for trypsin and 1:50 (w/w) for proteinase K for 24 h. […] After inactivation, aliquots of 50 µL were injected into a Varian™ chromatograph (Varian, Inc. Corporate Headquarters, Palo Alto, CA, United States), model Pro Star 315, with ultraviolet detector, model Pro Star 335, using a Vydac™ 218 TP C18 (250 × 4.6 mm) reverse phase column. Chromatographic analyses were performed using a gradient of deionized water containing 0.1% TFA and acetonitrile containing 0.08% TFA. Samples were detected at 215 nm under a flow of 0.80 mL · min^−1 for 45 min.

[7] = test system: trypsin; test: Proteolytic degradation assay, RP-HPLC; type: in vitro ADME; conditions: 50 μM peptide, enzyme:substrate 1:50 (w/w), 10 mM phosphate buffer pH 8.0, 37°C, up to 24 h, RP-HPLC C18, UV 215 nm
Procedure: as §4

Sequence of proteinase K (P06873 106-384): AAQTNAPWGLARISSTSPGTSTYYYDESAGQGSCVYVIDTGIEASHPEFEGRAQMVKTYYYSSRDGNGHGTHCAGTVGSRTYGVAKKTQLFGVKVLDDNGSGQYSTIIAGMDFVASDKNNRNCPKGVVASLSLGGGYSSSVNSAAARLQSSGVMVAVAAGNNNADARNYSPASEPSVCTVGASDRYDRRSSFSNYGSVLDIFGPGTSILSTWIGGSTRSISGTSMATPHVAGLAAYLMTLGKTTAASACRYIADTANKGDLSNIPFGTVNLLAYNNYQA

Substance	MIC [1] [µM]	MIC [2] [µM]	MIC [3] [µM]	MIC [4] [µM]	MIC [5] [µM]	Selectivity index (SI) ([1]; E. coli ATCC 25922 versus VERO cells (CC50, MTT, 24 h))	Selectivity index (SI) ([2]; S. aureus ATCC 33591 versus VERO cells (CC50, MTT, 24 h))	Selectivity index (SI) ([4]; E. coli ISOL_11 versus VERO cells (CC50, MTT, 24 h))	Selectivity index (SI) ([5]; S. aureus ISOL_1 versus VERO cells (CC50, MTT, 24 h))	Proteolytic degradation by proteinase K [6]	Proteolytic degradation by trypsin [7]
Ac-IWLTALKFLGKNLGKLAKQQCAKL-NH2 [LyeTx I-bcys]	1.0	2.0	1.0	1.0	2.0	–	–	–	–	–	–
Ac-IWLTALKFLGKNLGKLAKQQLAKL-NH2 [LyeTx I-b]	1.0	2.0	1.0	1.0	2.0	0.96	0.48	0.96	0.48	almost completely degraded after 6 h	almost completely degraded after 6 h
